Measurements from ChEMBL document CHEMBL4507301 (2021).

Assays:
Conditions in all cases: Compound concentration 1000.0 nM
[1] = molecular target: Activin receptor type-2A (Homo sapiens) (UniProt P27037)
[2] = molecular target: Atypical kinase COQ8A, mitochondrial (Homo sapiens) (UniProt Q8NI60)
[3] = molecular target: RAC-alpha serine/threonine-protein kinase (Homo sapiens) (UniProt P31749)
[4] = molecular target: RAC-beta serine/threonine-protein kinase (Homo sapiens) (UniProt P31751)
[5] = tested on: ALK tyrosine kinase receptor (Homo sapiens), Q9UM73 [C1156Y]
ALK tyrosine kinase receptor (Homo sapiens), Q9UM73 [C1156Y], sequence (Q9UM73 whole entry C1156Y, looked up): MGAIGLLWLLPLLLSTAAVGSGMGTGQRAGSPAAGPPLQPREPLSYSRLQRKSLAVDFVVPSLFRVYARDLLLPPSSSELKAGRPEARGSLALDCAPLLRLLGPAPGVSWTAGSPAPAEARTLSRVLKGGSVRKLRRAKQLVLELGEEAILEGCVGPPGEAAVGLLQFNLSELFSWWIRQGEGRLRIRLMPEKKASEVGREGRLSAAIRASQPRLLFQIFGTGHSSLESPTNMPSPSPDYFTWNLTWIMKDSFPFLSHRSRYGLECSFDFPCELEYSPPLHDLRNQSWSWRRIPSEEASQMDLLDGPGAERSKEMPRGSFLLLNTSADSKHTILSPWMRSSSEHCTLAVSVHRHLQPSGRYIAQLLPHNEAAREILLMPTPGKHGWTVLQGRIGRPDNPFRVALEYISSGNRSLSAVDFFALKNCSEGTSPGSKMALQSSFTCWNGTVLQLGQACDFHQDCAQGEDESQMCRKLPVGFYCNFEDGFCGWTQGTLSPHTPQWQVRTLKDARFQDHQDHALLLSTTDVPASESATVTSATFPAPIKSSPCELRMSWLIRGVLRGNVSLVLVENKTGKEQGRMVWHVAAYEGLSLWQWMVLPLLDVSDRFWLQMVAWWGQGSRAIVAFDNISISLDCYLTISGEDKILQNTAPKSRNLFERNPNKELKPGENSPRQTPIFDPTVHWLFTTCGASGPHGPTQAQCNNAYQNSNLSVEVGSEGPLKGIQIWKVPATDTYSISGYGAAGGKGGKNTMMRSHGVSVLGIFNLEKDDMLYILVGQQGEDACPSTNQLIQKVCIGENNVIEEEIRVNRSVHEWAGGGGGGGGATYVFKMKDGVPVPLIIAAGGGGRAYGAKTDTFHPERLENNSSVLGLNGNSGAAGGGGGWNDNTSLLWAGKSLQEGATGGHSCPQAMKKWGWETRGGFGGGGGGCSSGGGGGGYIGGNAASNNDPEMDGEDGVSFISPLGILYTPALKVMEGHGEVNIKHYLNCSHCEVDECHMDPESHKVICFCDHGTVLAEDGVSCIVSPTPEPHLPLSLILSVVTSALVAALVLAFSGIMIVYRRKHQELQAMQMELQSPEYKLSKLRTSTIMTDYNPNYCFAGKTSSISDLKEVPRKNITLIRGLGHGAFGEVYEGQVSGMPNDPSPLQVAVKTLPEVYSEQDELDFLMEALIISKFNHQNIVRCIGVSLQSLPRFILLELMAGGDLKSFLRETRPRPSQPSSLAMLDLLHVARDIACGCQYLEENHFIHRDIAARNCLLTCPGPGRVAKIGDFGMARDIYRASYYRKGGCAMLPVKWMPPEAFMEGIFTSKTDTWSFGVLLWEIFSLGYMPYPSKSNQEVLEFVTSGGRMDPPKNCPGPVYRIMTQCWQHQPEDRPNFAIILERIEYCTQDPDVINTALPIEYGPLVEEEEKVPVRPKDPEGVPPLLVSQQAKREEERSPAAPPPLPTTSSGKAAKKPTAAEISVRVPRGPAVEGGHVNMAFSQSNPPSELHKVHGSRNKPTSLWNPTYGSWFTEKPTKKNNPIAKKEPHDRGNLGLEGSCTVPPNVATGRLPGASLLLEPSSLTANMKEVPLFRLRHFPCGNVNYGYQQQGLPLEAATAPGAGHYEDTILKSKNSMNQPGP

[6] = molecular target: Bone morphogenetic protein receptor type-1B (Homo sapiens) (UniProt O00238)
Bone morphogenetic protein receptor type-1B (Homo sapiens), sequence (O00238 whole entry): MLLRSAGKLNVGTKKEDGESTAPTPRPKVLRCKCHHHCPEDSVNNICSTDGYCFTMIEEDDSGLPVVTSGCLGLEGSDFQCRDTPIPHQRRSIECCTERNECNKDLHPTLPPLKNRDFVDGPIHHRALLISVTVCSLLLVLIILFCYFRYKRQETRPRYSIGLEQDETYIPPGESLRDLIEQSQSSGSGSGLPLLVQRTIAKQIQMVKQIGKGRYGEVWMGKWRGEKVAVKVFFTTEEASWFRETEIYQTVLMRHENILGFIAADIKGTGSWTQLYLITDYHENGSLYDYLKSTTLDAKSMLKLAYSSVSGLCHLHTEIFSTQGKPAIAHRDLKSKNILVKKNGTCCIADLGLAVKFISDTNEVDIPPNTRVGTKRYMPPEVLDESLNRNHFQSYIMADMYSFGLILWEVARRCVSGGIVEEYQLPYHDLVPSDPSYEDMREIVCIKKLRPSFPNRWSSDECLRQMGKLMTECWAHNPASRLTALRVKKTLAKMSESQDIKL

[7] = molecular target: Calcium/calmodulin-dependent protein kinase type II subunit alpha (Homo sapiens) (UniProt Q9UQM7)
[8] = molecular target: Calcium/calmodulin-dependent protein kinase type II subunit gamma (Homo sapiens) (UniProt Q13555)
[9] = molecular target: Peripheral plasma membrane protein CASK (Homo sapiens) (UniProt O14936)
Peripheral plasma membrane protein CASK (Homo sapiens), sequence (O14936 whole entry): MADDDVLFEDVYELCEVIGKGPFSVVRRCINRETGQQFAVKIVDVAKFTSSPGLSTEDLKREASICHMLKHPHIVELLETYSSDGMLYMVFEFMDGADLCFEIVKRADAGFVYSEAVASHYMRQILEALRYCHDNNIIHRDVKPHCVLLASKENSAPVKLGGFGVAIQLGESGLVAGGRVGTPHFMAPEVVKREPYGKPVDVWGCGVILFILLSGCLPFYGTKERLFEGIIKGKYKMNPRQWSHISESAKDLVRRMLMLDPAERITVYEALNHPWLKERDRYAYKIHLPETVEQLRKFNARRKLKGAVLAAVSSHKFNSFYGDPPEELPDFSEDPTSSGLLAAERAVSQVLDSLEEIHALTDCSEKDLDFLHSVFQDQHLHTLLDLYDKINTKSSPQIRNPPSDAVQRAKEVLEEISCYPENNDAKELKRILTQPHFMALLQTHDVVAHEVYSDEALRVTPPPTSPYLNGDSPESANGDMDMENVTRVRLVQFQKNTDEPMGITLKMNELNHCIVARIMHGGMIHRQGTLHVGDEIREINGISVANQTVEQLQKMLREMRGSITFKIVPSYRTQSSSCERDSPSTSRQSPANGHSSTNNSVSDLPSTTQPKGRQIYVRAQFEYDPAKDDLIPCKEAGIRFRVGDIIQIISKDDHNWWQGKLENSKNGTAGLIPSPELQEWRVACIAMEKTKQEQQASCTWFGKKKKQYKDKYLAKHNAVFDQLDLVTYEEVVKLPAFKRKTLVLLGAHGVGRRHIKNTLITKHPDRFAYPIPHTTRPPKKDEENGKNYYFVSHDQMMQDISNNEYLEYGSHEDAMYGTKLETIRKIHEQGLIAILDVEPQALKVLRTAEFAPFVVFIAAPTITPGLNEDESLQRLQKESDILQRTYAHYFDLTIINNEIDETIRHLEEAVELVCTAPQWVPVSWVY

[10] = molecular target: Cyclin-dependent kinase 9 (Homo sapiens) (UniProt P50750)
[11] = molecular target: Cyclin-dependent kinase-like 1 (Homo sapiens) (UniProt Q00532)
[12] = molecular target: Serine/threonine-protein kinase Chk1 (Homo sapiens) (UniProt O14757)
[13] = molecular target: Dual specificity protein kinase CLK1 (Homo sapiens) (UniProt P49759)
[14] = molecular target: Dual specificity protein kinase CLK2 (Homo sapiens) (UniProt P49760)
[15] = molecular target: Dual specificity protein kinase CLK3 (Homo sapiens) (UniProt P49761)
[16] = molecular target: Death-associated protein kinase 3 (Homo sapiens) (UniProt O43293)
[17] = molecular target: Ephrin type-B receptor 6 (Homo sapiens) (UniProt O15197)
Ephrin type-B receptor 6 (Homo sapiens), sequence (O15197 whole entry): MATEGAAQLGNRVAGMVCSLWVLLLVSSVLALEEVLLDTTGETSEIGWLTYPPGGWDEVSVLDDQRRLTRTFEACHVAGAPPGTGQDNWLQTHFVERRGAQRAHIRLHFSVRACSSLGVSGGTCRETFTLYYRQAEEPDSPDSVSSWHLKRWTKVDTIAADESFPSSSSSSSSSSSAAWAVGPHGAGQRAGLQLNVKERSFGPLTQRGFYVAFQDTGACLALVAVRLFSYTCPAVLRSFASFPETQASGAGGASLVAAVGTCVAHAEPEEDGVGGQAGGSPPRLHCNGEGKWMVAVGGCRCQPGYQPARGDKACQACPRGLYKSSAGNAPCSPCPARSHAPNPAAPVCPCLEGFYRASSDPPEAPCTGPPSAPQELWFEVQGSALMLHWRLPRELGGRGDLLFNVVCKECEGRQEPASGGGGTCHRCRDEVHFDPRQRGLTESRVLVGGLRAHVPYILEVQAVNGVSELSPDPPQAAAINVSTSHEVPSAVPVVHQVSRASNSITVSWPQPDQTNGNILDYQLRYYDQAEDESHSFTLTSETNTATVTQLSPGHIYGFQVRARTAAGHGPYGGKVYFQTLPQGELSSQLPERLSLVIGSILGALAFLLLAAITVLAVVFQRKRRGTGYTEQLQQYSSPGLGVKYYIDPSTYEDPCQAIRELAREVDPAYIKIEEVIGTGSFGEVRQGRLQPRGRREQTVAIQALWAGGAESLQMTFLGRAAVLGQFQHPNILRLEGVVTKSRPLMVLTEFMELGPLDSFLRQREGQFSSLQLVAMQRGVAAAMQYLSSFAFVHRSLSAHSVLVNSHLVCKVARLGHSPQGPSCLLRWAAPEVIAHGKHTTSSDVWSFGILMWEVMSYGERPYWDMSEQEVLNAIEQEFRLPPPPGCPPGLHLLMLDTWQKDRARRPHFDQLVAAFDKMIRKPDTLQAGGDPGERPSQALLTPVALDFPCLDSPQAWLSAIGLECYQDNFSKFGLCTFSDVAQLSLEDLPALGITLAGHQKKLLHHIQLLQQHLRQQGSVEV

[18] = molecular target: Serine/threonine-protein kinase/endoribonuclease IRE1 (Homo sapiens) (UniProt O75460)
[19] = tested on: Receptor-type tyrosine-protein kinase FLT3 (Homo sapiens), P36888 [N841I]
[20] = molecular target: Inhibitor of nuclear factor kappa-B kinase subunit alpha (Homo sapiens) (UniProt O15111)
[21] = molecular target: Mitogen-activated protein kinase 9 (Homo sapiens) (UniProt P45984)
[22] = tested on: Mast/stem cell growth factor receptor Kit (Homo sapiens), P10721 [D816V]
[23] = tested on: Mast/stem cell growth factor receptor Kit (Homo sapiens), P10721 [V559D]
[24] = molecular target: Mast/stem cell growth factor receptor Kit (Homo sapiens) (UniProt P10721)
[25] = molecular target: Serine/threonine-protein kinase LATS1 (Homo sapiens) (UniProt O95835)
[26] = molecular target: LIM domain kinase 2 (Homo sapiens) (UniProt P53671)
[27] = molecular target: Dual specificity mitogen-activated protein kinase kinase 3 (Homo sapiens) (UniProt P46734)
[28] = molecular target: Maternal embryonic leucine zipper kinase (Homo sapiens) (UniProt Q14680)
[29] = molecular target: Serine/threonine-protein kinase 24 (Homo sapiens) (UniProt Q9Y6E0)
Serine/threonine-protein kinase 24 (Homo sapiens), sequence (Q9Y6E0 whole entry, looked up): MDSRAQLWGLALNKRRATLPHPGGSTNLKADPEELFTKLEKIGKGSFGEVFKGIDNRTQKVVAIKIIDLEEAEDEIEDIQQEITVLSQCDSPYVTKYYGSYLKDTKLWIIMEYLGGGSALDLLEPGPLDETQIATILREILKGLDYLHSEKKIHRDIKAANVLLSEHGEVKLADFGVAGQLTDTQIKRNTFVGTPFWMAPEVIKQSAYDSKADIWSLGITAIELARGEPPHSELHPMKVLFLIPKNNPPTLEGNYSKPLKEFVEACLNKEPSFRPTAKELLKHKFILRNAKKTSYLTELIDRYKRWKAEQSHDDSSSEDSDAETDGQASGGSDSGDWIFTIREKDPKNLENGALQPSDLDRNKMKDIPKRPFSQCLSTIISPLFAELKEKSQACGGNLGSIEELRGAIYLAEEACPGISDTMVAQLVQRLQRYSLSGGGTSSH

[30] = molecular target: Serine/threonine-protein kinase 26 (Homo sapiens) (UniProt Q9P289)
[31] = molecular target: Myosin-IIIa (Homo sapiens) (UniProt Q8NEV4)
[32] = molecular target: Serine/threonine-protein kinase 38 (Homo sapiens) (UniProt Q15208)
Serine/threonine-protein kinase 38 (Homo sapiens), sequence (Q15208 2-465 limits assumed): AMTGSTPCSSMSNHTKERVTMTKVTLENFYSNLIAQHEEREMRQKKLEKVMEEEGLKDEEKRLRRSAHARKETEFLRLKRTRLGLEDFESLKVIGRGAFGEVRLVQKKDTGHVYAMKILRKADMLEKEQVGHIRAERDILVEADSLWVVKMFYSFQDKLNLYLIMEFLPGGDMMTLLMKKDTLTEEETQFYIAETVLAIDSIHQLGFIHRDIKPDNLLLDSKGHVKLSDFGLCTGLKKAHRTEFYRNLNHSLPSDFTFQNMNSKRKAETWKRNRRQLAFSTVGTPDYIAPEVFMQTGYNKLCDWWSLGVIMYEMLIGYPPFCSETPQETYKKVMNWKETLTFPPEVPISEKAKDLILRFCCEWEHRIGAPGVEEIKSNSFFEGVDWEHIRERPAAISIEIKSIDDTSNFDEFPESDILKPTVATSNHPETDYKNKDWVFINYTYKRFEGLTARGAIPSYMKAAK

[33] = molecular target: Serine/threonine-protein kinase Nek4 (Homo sapiens) (UniProt P51957)
[34] = molecular target: Serine/threonine-protein kinase Nek5 (Homo sapiens) (UniProt Q6P3R8)
[35] = molecular target: Serine/threonine-protein kinase Nek9 (Homo sapiens) (UniProt Q8TD19)
[36] = molecular target: Serine/threonine-protein kinase OSR1 (Homo sapiens) (UniProt O95747)
[37] = molecular target: Phosphatidylinositol 3-kinase C2 domain-containing subunit gamma (Homo sapiens) (UniProt O75747)
[38] = molecular target: Serine/threonine-protein kinase PknB (Mycobacterium tuberculosis) (UniProt P9WI81)
[39] = molecular target: Serine/threonine-protein kinase RIO2 (Homo sapiens) (UniProt Q9BVS4)
[40] = molecular target: Ribosomal protein S6 kinase alpha-4 (Homo sapiens) (UniProt O75676)
[41] = molecular target: Serine/threonine-protein kinase SBK1 (Homo sapiens) (UniProt Q52WX2)
[42] = molecular target: NUAK family SNF1-like kinase 2 (Homo sapiens) (UniProt Q9H093)
[43] = molecular target: Tyrosine-protein kinase Srms (Homo sapiens) (UniProt Q9H3Y6)
[44] = molecular target: Serine/threonine-protein kinase TBK1 (Homo sapiens) (UniProt Q9UHD2)
[45] = molecular target: BDNF/NT-3 growth factors receptor (Homo sapiens) (UniProt Q16620)

Measured: residual activity

C[C@H](c1cccc(C#N)c1)n1cc(Cl)cc(C(N)=O)c1=N [(R)-9s]
inactive: [1] 100% | [2] 88% | [3] 100% | [4] 100% | [5] 89% | [6] 94% | [7] 100% | [8] 100% | [9] 82% | [10] 84% | [11] 98% | [12] 100% | [13] 100% | [14] 100% | [15] 100% | [16] 100% | [17] 87% | [18] 69% | [19] 97% | [20] 100% | [21] 96% | [22] 87% | [23] 83% | [24] 98% | [25] 74% | [26] 100% | [27] 73% | [28] 74% | [29] 89% | [30] 88% | [31] 100% | [32] 87% | [33] 100% | [34] 93% | [35] 79% | [36] 81% | [37] 88% | [38] 89% | [39] 74% | [40] 69% | [41] 83% | [42] 91% | [43] 75% | [44] 98% | [45] 100%

C[C@@H](c1cccc(C#N)c1)n1cc(Cl)cc(C(N)=O)c1=N [(S)-9s]
inactive: [1] 100% | [2] 89% | [3] 100% | [4] 93% | [5] 98% | [6] 89% | [7] 100% | [8] 100% | [9] 79% | [10] 91% | [11] 100% | [12] 100% | [13] 100% | [14] 100% | [15] 100% | [16] 100% | [17] 100% | [18] 76% | [19] 86% | [20] 100% | [21] 82% | [22] 94% | [23] 93% | [24] 78% | [25] 69% | [26] 100% | [27] 67% | [28] 78% | [29] 100% | [30] 68% | [31] 99% | [32] 84% | [33] 96% | [34] 100% | [35] 97% | [36] 93% | [37] 84% | [38] 100% | [39] 83% | [40] 80% | [41] 99% | [42] 86% | [43] 83% | [44] 89% | [45] 100%
